Measurements: patent US9376506B2, “Method for producing sialic-acid-containing sugar chain” (GLYTECH, INC., priority 2011, dated 2016)
Like-named read-outs stand apart in the source and are kept apart here.

Assays:
ST6Gal-I = biological target: T1, ST6Gal-I (Homo sapiens, UniProt P15907); conditions: 0.25 mM CMP, cited from earlier work
T1 sequence (P15907 1-406): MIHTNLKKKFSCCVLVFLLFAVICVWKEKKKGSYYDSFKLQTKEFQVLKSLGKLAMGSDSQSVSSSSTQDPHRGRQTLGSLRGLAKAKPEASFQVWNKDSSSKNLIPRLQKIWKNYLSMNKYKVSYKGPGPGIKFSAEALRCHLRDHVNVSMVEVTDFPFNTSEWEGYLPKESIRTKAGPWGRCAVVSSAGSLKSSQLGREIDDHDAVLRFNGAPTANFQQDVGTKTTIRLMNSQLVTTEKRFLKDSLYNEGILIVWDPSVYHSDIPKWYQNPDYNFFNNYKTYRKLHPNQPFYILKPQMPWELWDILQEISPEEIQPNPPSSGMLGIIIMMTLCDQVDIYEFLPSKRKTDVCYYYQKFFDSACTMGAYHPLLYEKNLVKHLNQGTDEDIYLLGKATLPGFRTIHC

[1] = Stability of CMP-Neu5Ac (CMP formation, HPLC); assay type: physicochemical; conditions: 5 mM CMP-Neu5Ac/0.1 M MOPS (pH 7.3), after 24 hours
Description: In order to confirm whether CMP was formed by the degradation of the substrate donor CMP-Neu5Ac, 5 mM CMP-Neu5Ac/0.1 M MOPS (pH 7.3) was incubated at 25° C., 30° C., 33° C., or 37° C., and the amount of CMP formed was measured. The measurement was performed by HPLC using a column TSKgel SuperQ-5PW (7.5×75 mm; Tosoh Corp.) and 50 mM KPi (pH 8.0) as a solvent. A UV detector (detection wavelength: 254 nm) was used for the detection. The degree of CMP formation was indicated by [Peak area of CMP]/[Peak area of CMP+Peak area of CMP-Neu5Ac]×100(%). After 24 hours, 45% CMP was formed at 37° C., whereas 21% CMP was formed at 30° C., which was about half of that formed at 37° C.

SMILES	product inhibition of ST6Gal-I by CMP (ST6Gal-I; Non Patent Literature 5)	product inhibition of ST6Gal-I by CMP (ST6Gal-I; Non Patent Literature 6)	CMP formed, [Peak area of CMP]/[Peak area of CMP+Peak area of CMP-Neu5Ac]×100 ([1]; 30° C.)	CMP formed, [Peak area of CMP]/[Peak area of CMP+Peak area of CMP-Neu5Ac]×100 ([1]; 37° C.)
Nc1ccn([C@@H]2O[C@H](COP(=O)(O)O)[C@@H](O)[C@H]2O)c(=O)n1 [CMP, cytidine monophosphate]	49%	71%		
CC(=O)N[C@H]1[C@H]([C@H](O)[C@H](O)CO)O[C@](OP(=O)(O)OC[C@H]2O[C@@H](n3ccc(N)nc3=O)[C@H](O)[C@@H]2O)(C(=O)O)C[C@@H]1O [CMP-Neu5Ac, CMP-N-acetylneuraminic acid]			21%	45%
